Test results taken from ChEMBL document CHEMBL3751841, “Synthesis of carboxyimidamide-substituted benzo[c][1,2,5]oxadiazoles and their analogs, and evaluation of biological activity against Leishmania donovani” (Medchemcomm, 2015).

Columns and labels:
Leishmania donovani [1] = assay: Antileishmanial activity against Leishmania donovani MHOM/SD/1962/1S-Cl2d axenic amastigotes assessed as inhibition of parasite growth at 50 uM after 24 hrs by alamar blue staining based fluorescent viability microplate assay; assay type: functional; conditions: read-out: GI
Leishmania donovani [2] = assay: Antileishmanial activity against Leishmania donovani MHOM/SD/1962/1S-Cl2d axenic amastigotes assessed as inhibition of parasite growth at 15 uM after 24 hrs by alamar blue staining based fluorescent viability microplate assay; assay type: functional; conditions: read-out: GI
[3] = Cytotoxicity against mouse NIH/3T3 cells assessed as reduction in cell viability after 48 hrs by alamar blue dye based assay; conditions: NIH3T3, 48 h
[4] = Selectivity index, ratio of EC50 for human THP1 cells to EC50 for Leishmania donovani axenic amastigotes; assay type: toxicity, cell-based, THP-1; conditions: THP1 cells versus Leishmania donovani axenic amastigotes, read-out: Ratio EC50
[5] = Cytotoxicity against human THP1 cells assessed as reduction in cell viability after 48 hrs by alamar blue dye based assay; conditions: THP-1, 48 h
Leishmania donovani [6] = assay: Antileishmanial activity against Leishmania donovani MHOM/SD/1962/1S-Cl2d axenic amastigotes assessed as inhibition of parasite growth after 24 hrs by alamar blue staining based fluorescent viability microplate assay; assay type: functional, organism-based
Leishmania donovani [7] = assay: Antileishmanial activity against Leishmania donovani MHOM/SD/1962/1S-Cl2d axenic amastigotes assessed as inhibition of parasite growth at 5 uM after 24 hrs by alamar blue staining based fluorescent viability microplate assay; assay type: functional; conditions: read-out: GI
Leishmania donovani [8] = assay: Antileishmanial activity against luciferase expressing Leishmania donovani intracellular amastigotes infected in human THP1 cells assessed as inhibition of parasite growth at 5 uM after 48 hrs by Bright-glo luciferase assay; assay type: functional; conditions: THP-1, 48 h, read-out: GI
[9] = Selectivity index, ratio of EC50 for mouse NIH/3T3 cells to EC50 for Leishmania donovani […] amastigotes; assay type: toxicity, cell-based; conditions: read-out: Ratio EC50
Leishmania donovani [10] = assay: Antileishmanial activity against luciferase expressing Leishmania donovani intracellular amastigotes infected in human THP1 cells assessed as inhibition of parasite growth at 1 uM after 48 hrs by Bright-glo luciferase assay; assay type: functional; conditions: THP-1, 48 h, read-out: GI
Leishmania donovani [11] = assay: Antileishmanial activity against luciferase expressing Leishmania donovani intracellular amastigotes infected in human THP1 cells assessed as inhibition of parasite growth after 48 hrs by Bright-glo luciferase assay; assay type: functional, organism-based; conditions: THP-1, 48 h
Leishmania donovani [12] = assay: Antileishmanial activity against Leishmania donovani MHOM/SD/1962/1S-Cl2d axenic amastigotes assessed as inhibition of parasite growth at 1 uM after 24 hrs by alamar blue staining based fluorescent viability microplate assay; assay type: functional; conditions: read-out: GI

Row | Compound | inhibition of growth at 50 µM (Leishmania donovani [1]) [%] | inhibition of growth at 15 µM (Leishmania donovani [2]) [%] | further results
1 | N/C(=N\OC(=O)c1ccccc1)c1ccc2nonc2c1 | 51.1 |  | 
2 | N/C(=N\OC(=O)Nc1ccccc1)c1ccc2[nH]cnc2c1 | 72 |  | 
3 | Cc1ccccc1NC(=O)O/N=C(\N)c1ccc2nonc2c1 | 42 |  | 
4 | N/C(=N\OC(=O)Nc1ccccc1)c1ccccc1 | 78.4 | 5.4 | 
5 | N/C(=N\OC(=O)Nc1cccc(C(F)(F)F)c1)c1ccc2nonc2c1 | 51.4 |  | 
6 | COc1ccccc1NC(=O)O/N=C(\N)c1ccc2nonc2c1 | 38 |  | 
7 | N/C(=N\OC(=O)Nc1ccccc1)c1ccc2ccccc2c1 | 98.8 | 24.9 | 
8 | O=C(Nc1ccccc1)ONC(=O)c1ccc2nonc2c1 | 96.2 | 68.2 | EC50 [3]: > 300 µM; selectivity ratio [4]: 4.2; EC50 [5]: 33.7 µM; EC50 (Leishmania donovani [6]): 8.1 µM; inhibition of growth at 5 µM (Leishmania donovani [7]): 54.6%; inhibition of growth at 5 µM (Leishmania donovani [8]): 19.9%; selectivity ratio [9]: > 37
9 | N/C(=N\OC(=O)Nc1ccccc1Cl)c1ccc2nonc2c1 | 29.6 |  | 
10 | C[C@@H]1[C@H](O)[C@@H](C)/C=C/C=C/C=C/C=C/C=C/C=C/C=C/[C@H](O[C@@H]2O[C@H](C)[C@@H](O)[C@H](N)[C@@H]2O)C[C@@H]2O[C@](O)(C[C@@H](O)C[C@@H](O)[C@H](O)CC[C@@H](O)C[C@@H](O)CC(=O)O[C@H]1C)C[C@H](O)[C@H]2C(=O)O [AMPHOTERICIN B] |  |  | EC50 [3]: 2.2 µM; EC50 [5]: 2.1 µM; inhibition of growth at 1 µM (Leishmania donovani [10]): > 90%; EC50 (Leishmania donovani [11]): 0.11 µM; inhibition of growth at 1 µM (Leishmania donovani [12]): 99.7%
11 | N/C(=N\OC(=O)Nc1ccccc1)c1ccc2[nH]ccc2c1 | 91.9 | 21.6 | 
12 | N/C(=N\OC(=O)Nc1ccc(C(F)(F)F)cc1)c1ccc2nonc2c1 | 51.7 |  | 
13 | N/C(=N\OC(=O)NC1CCCCC1)c1ccc2nonc2c1 | 43.9 |  | 
14 | N/C(=N\OC(=O)Nc1ccccc1)c1ccc2sccc2c1 | 97.9 | 35.2 | 
15 | N/C(=N\OC(=O)Cc1ccccc1)c1ccc2nonc2c1 | 22.4 |  | 
16 | N=C(NOC(=O)Nc1ccccc1)c1ccc2nonc2c1 | 70.1 | 24.2 | 
17 | N=C(NOC(=O)Nc1cccc(Cl)c1)c1ccc2nonc2c1 | 94.8 | 87.2 | EC50 [3]: > 300 µM; selectivity ratio [4]: 19; EC50 [5]: 79.9 µM; EC50 (Leishmania donovani [6]): 4.2 µM; inhibition of growth at 5 µM (Leishmania donovani [7]): 43.4%; EC50 (Leishmania donovani [11]): 5.92 µM; inhibition of growth at 5 µM (Leishmania donovani [8]): 33.1%; selectivity ratio [9]: > 71.4
18 | N/C(=N\OC(=O)Nc1ccc(Cl)cc1)c1ccc2nonc2c1 | 44 |  | 
19 | N/C(=N\OC(=O)Nc1ccccc1)c1ccc2c(c1)OCO2 | 93 | 33.9 | 
20 | COc1ccc(NC(=O)O/N=C(\N)c2ccc3nonc3c2)cc1 | 46 |  | 
21 | Cc1cccc(NC(=O)O/N=C(\N)c2ccc3nonc3c2)c1 | 67.2 | 44.6 | 
22 | Cc1ccc(NC(=O)O/N=C(\N)c2ccc3nonc3c2)cc1 | 64.1 |  | 
23 | N/C(=N\OC(=O)Nc1ccccc1C(F)(F)F)c1ccc2nonc2c1 | 42.1 |  | 
24 | COc1cccc(NC(=O)O/N=C(\N)c2ccc3nonc3c2)c1 | 71.4 | 31.8 | 
25 | N/C(=N\OC(=O)Nc1ccccc1)c1ccc2occc2c1 | 95.2 | 48 | 
26 | N/C(=N\OC(=O)Oc1ccccc1)c1ccc2nonc2c1 | 26.5 |  | 
